Test system: AML3
Test: Cell proliferation of cancerous cell lines
Type: cell-based
Details: AML3; read-out: Antineoplastic effect of tested compounds on cell proliferation of cancerous AML3 cells, IC50

SMILES	IC50 [nM]
COC(=O)c1ccc2c(c1)[nH]c1cc(Cc3ccccc3)nc(NCCN3CCCC3)c12	2000 to 5000
COC(=O)c1ccc2c(c1)[nH]c1nc(Cc3ccccc3)nc(NCCCN(C)CC(O)COCc3ccccc3)c12 (stereo not drawn)	2000 to 5000
COC(=O)c1ccc2c(c1)[nH]c1ncnc(NCCCN3CCCCC3C)c12 (stereo not drawn)	2000 to 5000
COC(=O)c1ccc2c(c1)[nH]c1nc(Cc3cccs3)nc(NCCCN3CCCCC3)c12	2000 to 5000
COC(=O)c1ccc2c(c1)[nH]c1ncnc(NCCc3c[nH]c4ccccc34)c12	2000 to 5000
CCn1nnc(-c2ccc3c(c2)[nH]c2ncnc(NCCCN4CCCCC4)c23)n1	2000 to 5000
COC(=O)c1ccc2c(c1)[nH]c1nc(CCc3ccccc3)nc(NCCCN3CCCCC3)c12	2000 to 5000
COC(=O)c1ccc2c(c1)[nH]c1nc(CC3CCCCC3)nc(NCCCN3CCCCC3)c12	2000 to 5000
COC(=O)c1ccc2c(c1)[nH]c1nc(Cc3ccccc3)nc(NCCCN3CCOCC3)c12	2000 to 5000
COC(=O)c1ccc2c(c1)[nH]c1nc(C(C)c3ccccc3)nc(NCCCN3CCCCC3)c12 (stereo not drawn)	2000 to 5000
Cc1nnc(-c2ccc3c(c2)[nH]c2ncnc(NCCCN4CCCCC4)c23)o1	2000 to 5000
COC(=O)c1ccc2c(c1)[nH]c1ncnc(N[C@H]3CC[C@@H](N)CC3)c12	2000 to 5000
COC(=O)c1ccc2c(c1)[nH]c1nc(Cc3ccncc3)nc(NCCCN3CCCCC3)c12	2000 to 5000
COC(=O)c1ccc2c(c1)[nH]c1nc(Cc3ccccc3)nc(Nc3cccc(CO)c3)c12	2000 to 5000
CNCCCNc1ncnc2[nH]c3cc(C(=O)OC)ccc3c12	2000 to 5000
COC(=O)c1ccc2c(c1)[nH]c1ncnc(NCC#CCN3CCCCC3)c12	2000 to 5000
COC(=O)c1ccc2c(c1)[nH]c1nc(Cc3ccccn3)nc(NCCCN3CCCCC3)c12	2000 to 5000
COC(=O)c1ccc2c(c1)[nH]c1nc(Cc3ccccc3)nc(NCC3CCCN3)c12 (stereo not drawn)	2000 to 5000
COC(=O)c1ccc2c(c1)[nH]c1nc(Cc3cccc(F)c3)nc(NCCCN3CCCCC3)c12	2000 to 5000

SMILES	IC50 [nM]
CC(=O)NCCNc1nc(Cc2ccccc2)nc2[nH]c3cc(-c4nnn(C)n4)ccc3c12	2000 to 5000
COC(=O)c1ccc2c(c1)[nH]c1nc(Cc3ccccc3)nc(NCCCN(C)CCCNc3ncnc4[nH]c5ccccc5c34)c12	2000 to 5000
COC(=O)c1ccc2c(c1)[nH]c1nc(Cc3ccccc3)cc(NCCCN3CCCCC3)c12	2000 to 5000
COC(=O)c1ccc2c(c1)[nH]c1nc(Cc3ccccc3)nc(Nc3cccc(N)c3)c12	2000 to 5000
c1ccc(-c2ccc3c(c2)[nH]c2ncnc(NCCCN4CCCCC4)c23)cc1	2000 to 5000
COC(=O)c1ccc2c(c1)[nH]c1nc(C)nc(NCCCN(C)CCCN)c12	2000 to 5000
COC(=O)c1ccc2c(c1)[nH]c1cc(Cc3ccsc3)nc(NCCCN3CCCCC3)c12	2000 to 5000
Cn1nnc(-c2ccc3c(c2)[nH]c2nc(Cc4ccccc4)nc(NCCCNCCCN)c23)n1	2000 to 5000
COC(=O)c1ccc2c(c1)[nH]c1ncnc(NCC(C)(C)CN)c12	2000 to 5000
COC(=O)c1ccc2c(c1)[nH]c1ncnc(NC3CCC(N(C)C)CC3)c12 (stereo not drawn)	2000 to 5000
c1csc(-c2ccc3c(c2)[nH]c2ncnc(NCCCN4CCCCC4)c23)c1	2000 to 5000
COC(=O)c1ccc2c3c(N(C)CCCN4CCCCC4)ncnc3n(C)c2c1	2000 to 5000
COC(=O)c1ccc2c(c1)[nH]c1ncnc(NCCN3CCCCC3)c12	2000 to 5000
COC(=O)c1ccc2c(c1)[nH]c1nc(Cc3ccccc3)nc(NCCNC(=O)C(F)F)c12	2000 to 5000
COC(=O)c1ccc2c(c1)[nH]c1nc(Cc3ccccc3)nc(NCC(O)CN3CCCCC3)c12 (stereo not drawn)	2000 to 5000
COC(=O)c1ccc2c(c1)[nH]c1nc(Cc3cccnc3)nc(N3CCC(N4CCCC4)CC3)c12	2000 to 5000
COC(=O)c1ccc2c(c1)[nH]c1nc(Cc3ccccc3)nc(Nc3cccc(NC(C)=O)c3)c12	2000 to 5000
CCOC(=O)c1ccc2c(c1)[nH]c1nc(Cc3ccccc3)nc(NCCCN3CCCCC3)c12	2000 to 5000

Next, values leading:

IC50 [nM]	SMILES
1000 to 2000	Cn1nnc(-c2ccc3c(c2)[nH]c2ncnc(N[C@H]4CC[C@H](N)CC4)c23)n1
1000 to 2000	COC(=O)c1ccc2c(c1)[nH]c1nc(Cc3ccccc3)nc(NCCCCCCCN)c12
2000 to 5000	C#CCOC(CNc1nc(Cc2ccccc2)nc2[nH]c3cc(C(=O)OC)ccc3c12)CN1CCCCC1 (stereo not drawn)
2000 to 5000	COC(=O)c1ccc2c(c1)[nH]c1nc(CN(C)C)nc(NCCCN3CCCCC3)c12
500 to 1000	COC(=O)c1ccc2c(c1)[nH]c1nc(Cc3ccccc3)nc(NCCCCCCN(C)C)c12
2000 to 5000	COC(=O)c1ccc2c(c1)[nH]c1nc(C)nc(NCCCN3CCCCC3)c12
2000 to 5000	COC(=O)c1ccc2c(c1)[nH]c1nc(Cc3cccc(OC)c3)nc(NCCCN3CCCCC3)c12
1000 to 2000	COC(=O)c1ccc2c(c1)[nH]c1nc(Cc3ccccc3)nc(CCCCN3CCCCC3)c12
1000 to 2000	Cn1nnc(-c2ccc3c(c2)[nH]c2nc(Cc4ccccc4)nc(NCCN)c23)n1
2000 to 5000	Cc1nc(-c2ccc3c(c2)[nH]c2ncnc(NCCCN4CCCCC4)c23)no1
2000 to 5000	COC(=O)c1ccc2c(c1)[nH]c1ncnc(NCCCN3CCCCC3)c12 [drawing 45]
2000 to 5000	COC(=O)c1ccc2c(c1)[nH]c1ncnc(NCCCN(C)CCCN)c12
2000 to 5000	COC(=O)c1cnc2c(c1)[nH]c1nc(C(C)c3ccccc3)nc(NCCCN3CCCCC3)c12 (stereo not drawn)
2000 to 5000	COC(=O)c1ccc2c(c1)[nH]c1nc(Cc3cccc(F)c3)nc(NCCCN(C)CCCN)c12
1000 to 2000	COC(=O)c1ccc2c(c1)[nH]c1nc(Nc3ccccc3)nc(NCCCN3CCCCC3)c12
< 500	COC(=O)c1cnc2c(c1)Cc1nc(Cc3ccccc3)nc(NCCCN(C)CCCNc3nc(Cc4ccccc4)nc4[nH]c5cc(C(=O)OC)cnc5c34)c1-2
1000 to 2000	COC(=O)c1ccc2c(c1)[nH]c1nc(Cc3cccc(C(=O)C(F)(F)F)c3)nc(NCCCN3CCCCC3)c12
1000 to 2000	Cn1nnc(-c2ccc3c(c2)[nH]c2ncnc(NCC(O)CN4CCCCC4)c23)n1 (stereo not drawn)
500 to 1000	CN1CCN(c2ccc(CNc3nc(Cc4ccccc4)nc4[nH]c5cc(-c6nnn(C)n6)ccc5c34)cc2)CC1

IC50 [nM]	SMILES
500 to 1000	COC(=O)c1ccc2c(c1)[nH]c1nc(Cc3ccccc3)nc(NCC3CCNC3)c12 (stereo not drawn)
500 to 1000	COC(=O)c1ccc2c(c1)[nH]c1nc(Cc3ccccc3)nc(NCCCN(C)CCOCCOCCO)c12
500 to 1000	COC(=O)c1ccc2c(c1)[nH]c1nc(C(O)c3ccccc3)nc(NCCCN3CCCCC3)c12 (stereo not drawn)
1000 to 2000	CN(C)CCCN(C)c1ncnc2[nH]c3cc(-c4nnn(C)n4)ccc3c12
500 to 1000	Cn1nnc(-c2ccc3c(c2)[nH]c2nc(Cc4ccccc4)nc(N[C@H]4CC[C@H](N(C)C)CC4)c23)n1
500 to 1000	C#CCCC(=O)NCCCN(C)CCCNc1nc(Cc2ccccc2)nc2[nH]c3cc(C(=O)OC)ccc3c12
< 500	COC(=O)c1ccc2c(c1)[nH]c1nc(Cc3ccccc3)nc(NCCCN(C)CCCNC(=N)N)c12
500 to 1000	CN(CCCN)CCCNc1nc(Cc2ccccc2)nc2[nH]c3cc(-c4nnn(C)n4)ccc3c12
1000 to 2000	COC(=O)c1ccc2c(c1)[nH]c1cc(Cc3cccc(O)c3)nc(NCCCCN3CCCC3)c12
1000 to 2000	COC(=O)c1ccc2c3c(NCCCN4CCCCC4)ncnc3n(C)c2c1
1000 to 2000	COC(=O)c1ccc2c(c1)[nH]c1nc(Cc3ccccc3)nc(NCCCN3CCCCC3)c12
< 500	COC(=O)c1ccc2c(c1)[nH]c1ncnc(NCc3ccccc3CN(C)C)c12
1000 to 2000	Cn1nnc(-c2ccc3c(c2)[nH]c2ncnc(NCCCN4CCCC4)c23)n1
1000 to 2000	CNCCCNc1nc(Cc2ccccc2)nc2[nH]c3cc(C(=O)OC)ccc3c12
< 500	Cn1nnc(-c2ccc3c(c2)[nH]c2nc(Cc4ccccc4)nc(NCCCN4CCCC4)c23)n1
500 to 1000	Cn1nnc(-c2ccc3c(c2)[nH]c2ncnc(N[C@H]4CC[C@H](N(C)C)CC4)c23)n1
1000 to 2000	CN(CCCN1CCCCC1)c1ncnc2[nH]c3cc(-c4nnn(C)n4)ccc3c12
500 to 1000	COC(=O)c1ccc2c(c1)[nH]c1nc(Cc3ccc(Br)cc3)nc(NCCCN3CCCCC3)c12
500 to 1000	COC(=O)c1cnc2c(c1)[nH]c1nc(Cc3ccc4ccccc4c3)nc(N3CCC(N4CCCC4)CC3)c12

IC50 [nM]	SMILES
1000 to 2000	COC(=O)c1ccc2c(c1)[nH]c1cc(Cc3cccc(OC)c3)nc(NCCCCN3CCCC3)c12
500 to 1000	CNCCNc1nc(Cc2ccccc2)nc2[nH]c3cc(C(=O)OC)ccc3c12
500 to 1000	Cn1nnc(-c2ccc3c(c2)[nH]c2nc(Cc4ccccc4)nc(NCCCN4CCCCC4)c23)n1
1000 to 2000	COC(=O)c1ccc2c(c1)[nH]c1nc(Cc3ccsc3)nc(NCCCN3CCCCC3)c12
1000 to 2000	Cc1nc(-c2ccc3c(c2)[nH]c2nc(Cc4ccccc4)nc(NCCCN4CCCCC4)c23)no1
1000 to 2000	COC(=O)c1ccc2c(c1)[nH]c1nc(C(OCc3ccccc3)c3ccccc3)nc(NCCCN3CCCCC3)c12 (stereo not drawn)
1000 to 2000	COC(=O)c1ccc2c(c1)[nH]c1nc(Cc3ccccc3)nc(NCCCN(C)CCCN)c12
1000 to 2000	COC(=O)c1ccc2c(c1)[nH]c1ncnc(NCCCN)c12
1000 to 2000	COC(=O)c1cnc2c(c1)[nH]c1nc(Cc3ccc4ccccc4c3)nc(NCCCN3CCCCC3)c12
1000 to 2000	Cn1nnc(-c2ccc3c(c2)[nH]c2ncnc(NCCCN4CCCCC4)c23)n1 [drawing 53]
500 to 1000	CCCCCc1nc(NCCCN2CCCCC2)c2c(n1)[nH]c1cc(C(=O)OC)ccc12
1000 to 2000	Cn1nnc(-c2ccc3c(c2)[nH]c2nc(Cc4ccccc4)nc(NCCCNCCCNC(=O)CCCC[C@@H]4SC[C@@H]5NC(=O)N[C@@H]54)c23)n1
1000 to 2000	COC(=O)c1ccc2c(c1)[nH]c1nc(Cc3ccsc3)nc(N[C@H]3CC[C@H](N)CC3)c12
1000 to 2000	COC(=O)c1ccc2c(c1)[nH]c1ccnc(NCCCN3CCCCC3)c12
1000 to 2000	Cn1nnc(-c2ccc3c(c2)[nH]c2cc(Cc4ccccc4)nc(NCCCN4CCCCC4)c23)n1
1000 to 2000	Cn1nnc(-c2ccc3c(c2)[nH]c2nc(Cc4ccccc4)nc(NCCCCCCCCCCN)c23)n1
500 to 1000	COC(=O)c1ccc2c(c1)[nH]c1nc(Cc3ccccc3)nc(NCCCCCN(C)C)c12
< 500	CNS(=O)(=O)c1cccc(Nc2ncnc3[nH]c4cc(C(=O)OC)ccc4c23)c1
